Source: patent US10112918B2, “15-oxospiramilactone derivatives, preparation method and uses thereof” (Kunming Institute of Botany, The Chinese Academy of Sciences, priority 2013, dated 2018)
Read-outs that look alike come from different tables or passages of the source.

Tests used:
Type in all cases: cell-based
[1] = tested on: HL-60 (human promyelocytic leukemia cells); test: MTT inhibition of tumor cell growth, HL-60; conditions: Homo sapiens
Experimental: (§1) 1. Inoculating cells: the culture medium DMEM or RMPI1640 containing 10% fetal bovine serum was used to prepare a single cell suspension, and the cell suspension was inoculated to a 96-well plate at 5000-10000 cells per well (100 μl for each well); Adherent cells were inoculated and cultured for 12 h in advance. HL-60 (human promyelocytic leukemia cells), SMMC-7721 (human hepatoma cells), A-549 (Human lung adenocarcinoma cells), MCF-7 (human breast cancer cells), SW-480 (human colon cancer cells) were purchased from the Cell Bank of the Chinese Academy of Sciences, Shanghai.
(§2) 2. The solution of the compound to be tested (40 μM for primary screening; 5 concentrations were set for gradient re-screening for the compounds which achieve about 50% inhibition of tumor cell growth at 40 μM) was added, the final volume of each well was 200 μl, and triplicate wells were set for each test.
(§3) 3. Coloration: After culturing at 37° C. for 48 h, MTT solution (20 μl) was added to each well. After incubation for another 4 h, the culture was stopped. The supernatant in each well was pipetted and discarded, and 200 μl SDS solution (10%) was added to each well. Incubation was performed overnight (at 37° C.), to completely dissolve the crystal.
(§4) 4. Colorimetric assay: ELISA Reader (Bio-Rad 680) was used to obtain the light absorption for each well at a wavelength of 595 nm, the results were recorded. A cell growth curve was plotted with the concentration as abscissa and the cell survival percentage as ordinate. The two-point method (Reed and Muench method) was used to calculate the IC50 of the compound.

[2] = tested on: Wnt signaling pathway (Top-Flash reporter gene); test: Top-Flash Wnt reporter gene assay in HEK293T cells with Wnt3a conditioned medium; conditions: Homo sapiens, HEK-293T, 6 h, 6 h
Experimental: HEK293T cells were cultured in DMEM containing 10% fetal bovine serum (Invitrogen) at 37° C., 5% CO2. The cells were passaged every other day. The density was retained at 70˜80% during passage. L cell line (CRL-2647, purchased from the gene bank of ATCC, the US) and the control cell line (CRL-2648, purchased from ATCC, US), which stably secreted mouse Wnt3a protein, were cultured in DMEM containing 50 ug/ml G418 and 10% fetal bovine serum, at 37° C., 5% CO2. When the cells grew to a density of about 70%, the medium was replaced with DMEM containing 10% fetal bovine serum. After continuous culture for 4 days, the culture was collected and centrifuged, and the supernatant was kept so that the Wnt conditioned medium was obtained. After titration assay, the conditioned medium was quick-frozen in liquid nitrogen, and placed at −80° C. for long-term storage, so that the titer was kept unchanged.
The cells were seeded to a 48-well plate at a density of […] cells per well, and transfected 20 h later. The reagents for plasmid transfection were calculated based on the amount in each well of the 48-well plate as following: the total amount of plasmid was 125 ng/well; the plasmid was first added to a serum-free medium (25 μL/well) and mixed well; PLUS reagent (Invitrogen) was then added in an amount of 0.5 μL/well and mixed well, then stood for 15 min; Lipofectamine (Invitrogen) liposome was added in an amount of 0.5 μL/well to serum-free DMEM medium (25 μL/well), and then mixed with the solution containing the plasmid and the PLUS, and stood for 15 min. The cells were cultured in serum-free DMEM medium (100 μL/well), and the final mixture of plasmid, PLUS and Lipofectamine were added to the cells. After incubation for 3 h, the transfection was stopped by the medium containing 10% fetal bovine serum (200 μL/well).
The HEK293T cells used for activity assay of the report gene were transfected by the method as shown in 2). Activity assay of Wnt reporter gene: the amount of plasmid for transfection was 5 ng/well for TOP-flash and 5 ng/well for GFP plasmid as internal standard, with lacZ added to reach a total amount of 125 ng/well. […] After treating for 6 h, Boehringer Mannheim Luci-ferase Assay Kit was used to lyse cells (200 μL/well). 50 μL from each well was pipetted into a 96-well plate. The indensity of GFP protein in the cell lysate was measured by fluorimeter FL600 (BIO-TEK Inc. Winooski, Vt.), and taken as internal standard for cell transfection efficiency. 10 μL substrate of luciferase was then added to each well, and the activity of luciferase was measured by Micro Lumate Plus (Perkin Elmer Inc. Wellesley, Mass.) luminometer. Finally, GFP indensity was used as internal standard to calibrate the activity of luciferase, i.e. the activity of Wnt reporter gene.
Calculation of IC50 (taking the calculation of IC50 of the Wnt signaling pathway for example): background (the activity as measured in the groups treated with a conditioned medium containing DMSO only) was subtracted from the reporter gene activity as measured in the groups treated by Wnt3a conditioned medium with or without the compound to be tested at different concentrations; and the obtained value was defined as the activity of the reporter gene induced by Wnt or the residual activity of the reporter gene after adding the compound to be tested. The residual activity was normalized by the activity induced by Wnt to get the relative residual activity. Then combine with the concentrations of the compound to be tested to plot a linear graph, and a dose-effect curve was fitted based on 4-parameter logistic fit. IC50 of the Wnt signaling pathway is determined as the concentration at which the relative residual activity is 0.5.

[3] = tested on: A-549 (Human lung adenocarcinoma cells); test: MTT inhibition of tumor cell growth, A-549; conditions: Homo sapiens
Experimental: as §1, §2, §3, §4

[4] = tested on: SW-480 (human colon cancer cells); test: MTT inhibition of tumor cell growth, SW-480; conditions: Homo sapiens
Experimental: as §1, §2, §3, §4

[5] = tested on: MCF-7 (human breast cancer cells); test: MTT inhibition of tumor cell growth, MCF-7; conditions: Homo sapiens
Experimental: as §1, §2, §3, §4

[6] = tested on: SMMC-7721 (human hepatoma cells); test: MTT inhibition of tumor cell growth, SMMC-7721; conditions: Homo sapiens
Experimental: as §1, §2, §3, §4

[7] = HL-60, 48 h, Table 4, derivatives obtained by reduction of the lactonic ring
[8] = A549, 48 h, Table 4, derivatives obtained by reduction of the lactonic ring
[9] = SW480, 48 h, Table 4, derivatives obtained by reduction of the lactonic ring, read-out: IC50 SW-480
[10] = MCF7, 48 h, Table 4, derivatives obtained by reduction of the lactonic ring
[11] = SMMC-7721, 48 h, Table 4, derivatives obtained by reduction of the lactonic ring
[12] = HL-60, Table 7 (first), alkaloid derivatives, 48 h
[13] = read-out: IC50 (μM), inhibitory activity on the Wnt signaling pathway
[14] = A549, Table 7 (first), alkaloid derivatives, 48 h
[15] = SW480, Table 7 (first), alkaloid derivatives, 48 h, read-out: IC50 SW-480
[16] = MCF7, Table 7 (first), alkaloid derivatives, 48 h
[17] = SMMC-7721, Table 7 (first), alkaloid derivatives, 48 h
[18] = Table 9, HEK293T, Wnt3a conditioned medium, read-out: IC50(μM), inhibitory activity on the Wnt signaling pathway

IC50 [1, 7] | IC50 [3, 8] | IC50 [4, 9] | IC50 [5, 10] | IC50 [6, 11] | IC50 [2, 18] | SMILES | IC50 [1, 12] | IC50 [2, 13] | IC50 [3, 14] | IC50 [4, 15] | IC50 [5, 16] | IC50 [6, 17] | further results
4.18 µM | 4.21 µM | 2940 nM | 3310 nM | 3950 nM |  | C=C1C(=O)[C@]23CC[C@H]1CC2[C@]1(COC(=O)N2CCOCC2)CCC[C@@](C)(COS(C)(=O)=O)C1CC3=O (some centres unmarked) [Compound 59] |  |  |  |  |  |  | IC50 ([2]; Table 10, HEK293T, Wnt3a conditioned medium, read-out: IC50 (μM), inhibitory activity on the Wnt signaling pathway): 43.8 ± 3.05 µM
 |  |  |  |  |  | C=C1C(=O)[C@]23CC[C@H]1CC2[C@@]12CCC[C@@](C)(CN(CCO)C1)C2C[C@H]3O (some centres unmarked) [Compound 88] | 7.95 µM | > 60 µM | 9.92 µM | 14400 nM | 16600 nM | 11200 nM | 
 |  |  |  |  | 7.3 µM | C=C1C(=O)C23CC[C@@H](CC2[C@]2(COC(C)=O)CCC[C@@](C)(COC(C)=O)C12)C(=C)C3=O (some centres unmarked) [Compound 53] |  |  |  |  |  |  | IC50 ([1]; HL-60, 48 h, Table 5, derivatives having double Michael reaction acceptor): 1.21 µM; IC50 ([3]; A549, 48 h, Table 5, derivatives having double Michael reaction acceptor): 0.64 µM; IC50 ([4]; SW480, 48 h, Table 5, derivatives having double Michael reaction acceptor, read-out: IC50 SW-480): 780 nM; IC50 ([4]; SW480, 48 h, Table 6, double Michael reaction acceptor derivatives, read-out: IC50 SW-480, derivatives having double Michael reaction acceptor): 780 nM; IC50 ([5]; MCF7, 48 h, Table 5, derivatives having double Michael reaction acceptor): 650 nM; IC50 ([6]; SMMC-7721, 48 h, Table 5, derivatives having double Michael reaction acceptor): 750 nM
1.37 µM | 1.86 µM | 1850 nM | 1550 nM | 930 nM |  | C=C1C(=O)C23CC[C@H]1CC2[C@]1(COS(C)(=O)=O)CCC[C@@](C)(COS(C)(=O)=O)C1C[C@H]3O (some centres unmarked) [Compound 72a] |  |  |  |  |  |  | IC50 ([2]; Table 8, HEK293T, Wnt3a conditioned medium, read-out: IC50 (μM), inhibitory activity on the Wnt signaling pathway): 12.6 ± 1.04 µM; IC50 ([4]; SW480, 48 h, Table 6, 7-hydroxyl derivatives and controls, read-out: IC50 SW-480, 7-hydroxyl derivatives): 2230 nM
 |  |  |  |  | 9.54 ± 1.34 µM | C=C1C(=O)[C@]23CC[C@H]1CC2[C@@]12CCC[C@@](C)(COC1=O)C2C(CN(C)C)C3=O (some centres unmarked) [Compound 10] |  |  |  |  |  |  | IC50 ([1]; HL-60, 48 h, Table 2, derivatives having potential Michael reaction acceptor): 3.41 µM; IC50 ([3]; A549, 48 h, Table 2, derivatives having potential Michael reaction acceptor): 0.83 µM; IC50 ([4]; SW480, 48 h, Table 2, derivatives having potential Michael reaction acceptor, read-out: IC50 SW-480): 1030 nM; IC50 ([5]; MCF7, 48 h, Table 2, derivatives having potential Michael reaction acceptor): 1180 nM; IC50 ([6]; SMMC-7721, 48 h, Table 2, derivatives having potential Michael reaction acceptor): 710 nM
 |  |  |  |  |  | C=C1C(=O)[C@@]23CC[C@@H](CC2[C@@]24CCC[C@@](C)(CN(CCO)C2)C14)C(=C)C3=O (some centres unmarked) [Compound 93] | 6.61 µM | 17 ± 1.28 µM | 6.5 µM | 2810 nM | 3570 nM | 11500 nM | 
